Measurements taken from publication PMC7265341, “Quantifying CDK inhibitor selectivity in live cells” (Nature Communications, 2020).
Like-named read-outs stand apart in the source and are kept apart here.

Legend:
[1] = target: CDK1/Cyclin E1 (Homo sapiens, UniProt P06493); assay: NanoBRET live-cell target engagement, CDK1-NanoLuc/Cyclin E1 in HEK-293; format: binding; conditions: CDK1/E1, 10µM
[2] = target: CDK2/Cyclin E1 (Homo sapiens, UniProt P24941); assay: NanoBRET live-cell target engagement, CDK2-NanoLuc/Cyclin E1 in HEK-293; format: binding; conditions: CDK2/E1
[3] = target: CDK4/Cyclin D1 (Homo sapiens, UniProt P11802); assay: NanoBRET live-cell target engagement, NanoLuc-CDK4/Cyclin D1 in HEK-293; format: binding; conditions: CDK4/D1
[4] = target: CDK5/CDK5R1 (Homo sapiens, UniProt Q00535); assay: NanoBRET live-cell target engagement, CDK5-NanoLuc/CDK5R1 in HEK-293; format: binding; conditions: CDK5/CDK5R1, 10µM
[5] = target: CDK6/Cyclin D1 (Homo sapiens, UniProt Q00534); assay: NanoBRET live-cell target engagement, NanoLuc-CDK6/Cyclin D1 in HEK-293; format: binding; conditions: CDK6/D1
[6] = target: CDK7 (Homo sapiens, UniProt P50613); assay: NanoBRET live-cell target engagement, NanoLuc-CDK7 in HEK-293; format: binding; conditions: 10µM
[7] = target: CDK8/Cyclin C (Homo sapiens, UniProt P49336); assay: NanoBRET live-cell target engagement, NanoLuc-CDK8/Cyclin C in HEK-293; format: binding; conditions: CDK8/C, 10µM
[8] = target: CDK9/Cyclin K (Homo sapiens, UniProt P50750); assay: NanoBRET live-cell target engagement, NanoLuc-CDK9/Cyclin K in HEK-293; format: binding; conditions: CDK9/K, 10µM
[9] = target: T1, CDK11A/Cyclin L2 (Homo sapiens, UniProt Q9UQ88); assay: NanoBRET live-cell target engagement, CDK11A-NanoLuc/Cyclin L2 in HEK-293; format: binding; conditions: 10µM
T1 sequence (Q9UQ88 1-783): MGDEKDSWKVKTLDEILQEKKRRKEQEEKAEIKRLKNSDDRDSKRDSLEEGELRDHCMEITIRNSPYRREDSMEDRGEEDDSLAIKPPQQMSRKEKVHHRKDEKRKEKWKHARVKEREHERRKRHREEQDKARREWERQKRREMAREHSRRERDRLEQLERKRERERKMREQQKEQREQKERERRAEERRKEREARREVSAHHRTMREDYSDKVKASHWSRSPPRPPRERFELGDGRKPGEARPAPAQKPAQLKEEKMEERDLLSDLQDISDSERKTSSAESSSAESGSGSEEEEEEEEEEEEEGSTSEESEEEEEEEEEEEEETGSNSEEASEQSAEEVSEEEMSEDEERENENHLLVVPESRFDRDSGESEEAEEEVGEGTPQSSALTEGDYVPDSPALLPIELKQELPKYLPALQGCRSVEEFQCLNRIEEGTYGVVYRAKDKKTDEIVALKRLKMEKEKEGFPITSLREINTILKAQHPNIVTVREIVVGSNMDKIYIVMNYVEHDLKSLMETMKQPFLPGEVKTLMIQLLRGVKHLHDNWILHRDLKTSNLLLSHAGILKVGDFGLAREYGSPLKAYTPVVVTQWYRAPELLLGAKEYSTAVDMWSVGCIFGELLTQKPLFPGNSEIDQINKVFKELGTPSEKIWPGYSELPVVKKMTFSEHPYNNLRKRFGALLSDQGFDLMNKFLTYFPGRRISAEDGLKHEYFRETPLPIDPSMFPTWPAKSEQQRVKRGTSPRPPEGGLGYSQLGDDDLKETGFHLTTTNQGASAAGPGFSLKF

[10] = target: CDK11B/Cyclin L2 (Homo sapiens, UniProt P21127); assay: NanoBRET live-cell target engagement, CDK11B-NanoLuc/Cyclin L2 in HEK-293; format: binding; conditions: 10µM
[11] = target: CDK13/Cyclin K (Homo sapiens, UniProt Q14004); assay: NanoBRET live-cell target engagement, CDK13-NanoLuc/Cyclin K in HEK-293; format: binding; conditions: CDK13/K, 10µM
[12] = target: CDK14/Cyclin Y (Homo sapiens, UniProt O94921); assay: NanoBRET live-cell target engagement, CDK14-NanoLuc/Cyclin Y in HEK-293; format: binding; conditions: for IC50: CDK14/Y
[13] = target: CDK15/Cyclin Y (Homo sapiens, UniProt Q96Q40); assay: NanoBRET live-cell target engagement, NanoLuc-CDK15/Cyclin Y in HEK-293; format: binding; conditions: for IC50: CDK15/Y
[14] = target: CDK16/Cyclin Y (Homo sapiens, UniProt Q00536); assay: NanoBRET live-cell target engagement, CDK16-NanoLuc/Cyclin Y in HEK-293; format: binding; conditions: for IC50: CDK16/Y
[15] = target: CDK17/Cyclin Y (Homo sapiens, UniProt Q00537); assay: NanoBRET live-cell target engagement, CDK17-NanoLuc/Cyclin Y in HEK-293; format: binding; conditions: 10µM
[16] = target: CDK18/Cyclin Y (Homo sapiens, UniProt Q07002); assay: NanoBRET live-cell target engagement, CDK18-NanoLuc/Cyclin Y in HEK-293; format: binding; conditions: 10µM
[17] = target: CDK20/Cyclin H (Homo sapiens, UniProt Q8IZL9); assay: NanoBRET live-cell target engagement, NanoLuc-CDK20/Cyclin H in HEK-293; format: binding; conditions: 10µM
[18] = target: CDK19/Cyclin C (Homo sapiens, UniProt Q9BWU1); assay: NanoBRET live-cell target engagement, NanoLuc-CDK19/Cyclin C in HEK-293; conditions: 10µM
[19] = target: CDK10/Cyclin L2 (Homo sapiens, UniProt Q15131); assay: NanoBRET live-cell target engagement, CDK10-NanoLuc/Cyclin L2 in HEK-293; conditions: 10µM
[20] = average of replicates, read-out: Inhibition at 10µM (%) Average
[21] = read-out: Inhibition at 10µM (%) Replicate 1
[22] = read-out: Inhibition at 10µM (%) Replicate 2
[23] = n=3 average ± SEM, n=2 average to 2 significant figures, read-out: IC50 (nM) Average*
[24] = read-out: IC50 (nM) Replicate 1
[25] = read-out: IC50 (nM) Replicate 2
[26] = read-out: IC50 (nM) Replicate 3

Sequence of CDK9/Cyclin K (P50750 whole entry): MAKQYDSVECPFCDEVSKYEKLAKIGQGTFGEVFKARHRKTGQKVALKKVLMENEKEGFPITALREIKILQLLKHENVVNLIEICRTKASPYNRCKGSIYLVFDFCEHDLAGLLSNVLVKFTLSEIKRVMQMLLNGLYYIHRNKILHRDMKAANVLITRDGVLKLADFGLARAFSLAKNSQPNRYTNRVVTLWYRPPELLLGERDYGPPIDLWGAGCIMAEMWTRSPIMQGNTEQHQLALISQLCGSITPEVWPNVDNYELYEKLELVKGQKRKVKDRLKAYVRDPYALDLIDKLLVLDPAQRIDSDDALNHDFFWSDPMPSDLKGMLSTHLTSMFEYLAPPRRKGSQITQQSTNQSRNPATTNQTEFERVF
Sequence of CDK9/Cyclin K (O75909 whole entry partner): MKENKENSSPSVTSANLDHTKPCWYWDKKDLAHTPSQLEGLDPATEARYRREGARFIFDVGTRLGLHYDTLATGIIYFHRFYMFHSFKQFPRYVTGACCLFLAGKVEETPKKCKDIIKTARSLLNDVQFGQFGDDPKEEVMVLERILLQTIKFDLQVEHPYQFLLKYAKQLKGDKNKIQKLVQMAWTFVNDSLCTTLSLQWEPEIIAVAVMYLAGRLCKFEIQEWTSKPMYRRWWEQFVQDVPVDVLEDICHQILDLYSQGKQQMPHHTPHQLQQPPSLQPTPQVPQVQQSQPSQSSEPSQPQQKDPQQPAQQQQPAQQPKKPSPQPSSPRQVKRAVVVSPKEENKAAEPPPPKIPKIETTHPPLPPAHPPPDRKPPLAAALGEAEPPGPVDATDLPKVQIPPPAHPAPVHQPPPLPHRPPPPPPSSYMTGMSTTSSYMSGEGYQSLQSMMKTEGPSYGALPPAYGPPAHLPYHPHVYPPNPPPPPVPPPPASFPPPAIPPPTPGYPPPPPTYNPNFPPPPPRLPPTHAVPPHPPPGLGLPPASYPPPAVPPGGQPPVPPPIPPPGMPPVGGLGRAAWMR
Sequence of CDK19/Cyclin C (Q9BWU1 whole entry): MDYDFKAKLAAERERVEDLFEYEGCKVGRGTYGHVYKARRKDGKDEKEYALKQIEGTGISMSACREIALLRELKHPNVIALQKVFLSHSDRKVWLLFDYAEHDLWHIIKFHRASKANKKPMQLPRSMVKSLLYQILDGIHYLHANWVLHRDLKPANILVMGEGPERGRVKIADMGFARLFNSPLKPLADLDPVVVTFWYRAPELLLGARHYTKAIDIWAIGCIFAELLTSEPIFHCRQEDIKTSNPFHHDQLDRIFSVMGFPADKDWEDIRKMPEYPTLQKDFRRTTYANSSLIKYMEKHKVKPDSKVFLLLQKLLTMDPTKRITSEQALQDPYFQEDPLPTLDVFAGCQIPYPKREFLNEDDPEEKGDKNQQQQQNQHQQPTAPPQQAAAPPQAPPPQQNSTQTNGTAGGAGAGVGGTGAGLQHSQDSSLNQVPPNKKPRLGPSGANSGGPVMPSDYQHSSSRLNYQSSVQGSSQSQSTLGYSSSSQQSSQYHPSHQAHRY
Sequence of CDK19/Cyclin C (P24863 whole entry partner): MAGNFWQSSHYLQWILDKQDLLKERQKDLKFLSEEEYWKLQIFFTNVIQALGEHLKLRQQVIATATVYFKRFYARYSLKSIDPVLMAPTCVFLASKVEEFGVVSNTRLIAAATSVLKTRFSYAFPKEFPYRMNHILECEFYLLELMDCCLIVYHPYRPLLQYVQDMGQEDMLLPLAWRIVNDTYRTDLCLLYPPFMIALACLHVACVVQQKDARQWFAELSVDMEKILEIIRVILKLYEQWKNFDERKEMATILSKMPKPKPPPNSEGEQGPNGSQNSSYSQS
Sequence of CDK13/Cyclin K (O75909 whole entry): as the sequence (O75909 whole entry partner) above
Sequence of CDK13/Cyclin K (Q14004 other isoform, or with tags, fused parts or gaps): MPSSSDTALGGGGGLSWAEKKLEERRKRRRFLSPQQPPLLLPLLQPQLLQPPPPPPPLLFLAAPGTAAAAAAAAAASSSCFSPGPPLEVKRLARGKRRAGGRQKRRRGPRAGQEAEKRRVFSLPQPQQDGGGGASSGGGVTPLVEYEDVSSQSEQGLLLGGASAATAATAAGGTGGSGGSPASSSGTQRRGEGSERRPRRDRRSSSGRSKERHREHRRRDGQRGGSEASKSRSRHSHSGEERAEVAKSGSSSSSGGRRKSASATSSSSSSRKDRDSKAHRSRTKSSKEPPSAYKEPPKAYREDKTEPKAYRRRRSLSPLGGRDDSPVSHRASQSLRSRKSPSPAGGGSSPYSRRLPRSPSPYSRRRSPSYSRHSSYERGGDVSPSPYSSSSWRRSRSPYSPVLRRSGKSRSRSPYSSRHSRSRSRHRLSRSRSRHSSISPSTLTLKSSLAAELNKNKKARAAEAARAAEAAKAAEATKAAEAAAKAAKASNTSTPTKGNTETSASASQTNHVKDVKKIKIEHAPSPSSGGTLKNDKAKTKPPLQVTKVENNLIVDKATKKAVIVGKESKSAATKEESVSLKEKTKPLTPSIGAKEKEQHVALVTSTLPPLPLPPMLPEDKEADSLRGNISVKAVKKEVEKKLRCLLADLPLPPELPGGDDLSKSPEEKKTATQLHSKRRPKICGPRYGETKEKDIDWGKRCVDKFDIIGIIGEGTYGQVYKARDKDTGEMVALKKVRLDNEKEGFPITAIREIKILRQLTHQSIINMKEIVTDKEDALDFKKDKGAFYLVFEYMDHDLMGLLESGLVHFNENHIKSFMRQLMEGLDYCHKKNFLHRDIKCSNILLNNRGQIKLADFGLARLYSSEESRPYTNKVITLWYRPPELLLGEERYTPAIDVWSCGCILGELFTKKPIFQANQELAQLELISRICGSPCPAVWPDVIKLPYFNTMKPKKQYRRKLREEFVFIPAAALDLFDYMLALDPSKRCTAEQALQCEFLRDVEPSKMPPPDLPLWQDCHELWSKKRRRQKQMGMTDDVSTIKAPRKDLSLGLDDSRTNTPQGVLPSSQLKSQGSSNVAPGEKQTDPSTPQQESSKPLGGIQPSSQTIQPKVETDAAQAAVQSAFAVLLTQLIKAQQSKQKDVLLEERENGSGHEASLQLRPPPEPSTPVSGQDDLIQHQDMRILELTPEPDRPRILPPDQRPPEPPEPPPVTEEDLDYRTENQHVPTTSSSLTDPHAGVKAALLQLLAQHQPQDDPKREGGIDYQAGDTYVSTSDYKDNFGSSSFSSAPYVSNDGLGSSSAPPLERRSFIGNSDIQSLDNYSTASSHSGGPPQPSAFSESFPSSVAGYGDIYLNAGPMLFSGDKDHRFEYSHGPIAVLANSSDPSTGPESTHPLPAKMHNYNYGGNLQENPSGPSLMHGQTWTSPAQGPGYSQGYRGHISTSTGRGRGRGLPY
Sequence of CDK8/Cyclin C (P49336 whole entry): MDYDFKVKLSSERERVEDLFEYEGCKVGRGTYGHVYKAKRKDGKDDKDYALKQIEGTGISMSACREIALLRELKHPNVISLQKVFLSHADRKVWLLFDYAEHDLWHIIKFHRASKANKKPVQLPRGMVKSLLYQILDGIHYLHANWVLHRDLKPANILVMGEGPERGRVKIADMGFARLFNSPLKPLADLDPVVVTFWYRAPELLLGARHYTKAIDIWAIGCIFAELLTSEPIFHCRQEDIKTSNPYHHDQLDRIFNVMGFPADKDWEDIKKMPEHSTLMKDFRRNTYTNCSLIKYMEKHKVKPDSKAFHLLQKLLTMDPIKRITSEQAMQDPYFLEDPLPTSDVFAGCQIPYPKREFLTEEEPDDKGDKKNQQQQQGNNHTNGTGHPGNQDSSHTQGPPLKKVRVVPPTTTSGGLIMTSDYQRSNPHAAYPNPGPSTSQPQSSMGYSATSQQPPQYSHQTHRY
Sequence of CDK8/Cyclin C (P24863 whole entry partner): as the sequence (P24863 whole entry partner) above
Sequence of CDK11B/Cyclin L2 (P21127 1-782 isoform P21127-2): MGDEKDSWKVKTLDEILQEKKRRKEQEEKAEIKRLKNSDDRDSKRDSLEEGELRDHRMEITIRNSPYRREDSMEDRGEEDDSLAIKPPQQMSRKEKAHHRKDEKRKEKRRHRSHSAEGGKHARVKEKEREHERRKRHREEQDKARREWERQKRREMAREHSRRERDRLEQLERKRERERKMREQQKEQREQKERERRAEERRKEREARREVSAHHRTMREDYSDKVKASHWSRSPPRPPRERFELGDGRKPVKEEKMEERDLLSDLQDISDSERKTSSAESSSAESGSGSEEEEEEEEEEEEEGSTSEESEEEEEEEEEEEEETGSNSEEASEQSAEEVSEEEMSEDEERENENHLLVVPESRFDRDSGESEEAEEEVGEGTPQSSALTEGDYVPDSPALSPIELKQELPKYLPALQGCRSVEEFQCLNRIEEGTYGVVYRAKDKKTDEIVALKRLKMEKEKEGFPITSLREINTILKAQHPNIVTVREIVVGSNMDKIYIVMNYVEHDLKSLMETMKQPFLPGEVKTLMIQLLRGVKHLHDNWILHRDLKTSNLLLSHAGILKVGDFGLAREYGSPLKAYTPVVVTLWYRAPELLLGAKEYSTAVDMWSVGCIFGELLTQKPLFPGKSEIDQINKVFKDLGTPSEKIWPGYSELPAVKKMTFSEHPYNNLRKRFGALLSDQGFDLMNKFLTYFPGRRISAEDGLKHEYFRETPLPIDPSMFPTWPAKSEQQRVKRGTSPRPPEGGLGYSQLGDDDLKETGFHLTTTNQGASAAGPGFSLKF
Sequence of CDK10/Cyclin L2 (Q15131 whole entry): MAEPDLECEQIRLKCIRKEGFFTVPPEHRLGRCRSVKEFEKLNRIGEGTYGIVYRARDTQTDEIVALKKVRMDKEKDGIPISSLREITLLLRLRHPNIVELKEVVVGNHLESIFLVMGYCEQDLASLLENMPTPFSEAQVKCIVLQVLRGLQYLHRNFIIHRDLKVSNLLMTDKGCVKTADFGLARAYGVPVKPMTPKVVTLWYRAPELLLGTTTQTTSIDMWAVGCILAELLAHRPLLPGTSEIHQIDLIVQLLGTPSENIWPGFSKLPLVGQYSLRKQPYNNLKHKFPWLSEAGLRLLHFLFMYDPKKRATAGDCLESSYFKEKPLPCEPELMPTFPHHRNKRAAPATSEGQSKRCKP

SMILES: C[C@H]1CC[C@H](n2c3cnccc3c3cnc(Nc4ccc5c(n4)CCN(C(=O)CO)C5)nc32)CC1 [AMG 925]
- inhibition at 10 µM [1, 20]: 34.5%
- inhibition at 10 µM [1, 21]: 45.4%
- inhibition at 10 µM [1, 22]: 23.6%
- inhibition at 10 µM [2, 20]: 63.9%
- inhibition at 10 µM [2, 21]: 40.8%
- inhibition at 10 µM [2, 22]: 87%
- IC50 [2, 23]: 310 ± 70 nM
- IC50 [2, 24]: 171 nM
- IC50 [2, 25]: 400 nM
- IC50 [2, 26]: 370 nM
- inhibition at 10 µM [3, 20]: 92.7%
- inhibition at 10 µM [3, 21]: 97.7%
- inhibition at 10 µM [3, 22]: 87.7%
- IC50 [3, 23]: 6 ± 2 nM
- IC50 [3, 24]: 3.2 nM
- IC50 [3, 25]: 4.9 nM
- IC50 [3, 26]: 11 nM
- inhibition at 10 µM [4, 20]: 22.1%
- inhibition at 10 µM [4, 21]: 24.7%
- inhibition at 10 µM [4, 22]: 19.6%
- inhibition at 10 µM [5, 20]: 99.1%
- inhibition at 10 µM [5, 21]: 98.6%
- inhibition at 10 µM [5, 22]: 99.5%
- IC50 [5, 23]: 7 ± 3 nM
- IC50 [5, 24]: 2.5 nM
- IC50 [5, 25]: 3.9 nM
- IC50 [5, 26]: 13 nM
- inhibition at 10 µM ([6]; read-out: Inhibition at 10µM (%) Average, CDK7, average of replicates): 27.8%
- inhibition at 10 µM ([6]; read-out: Inhibition at 10µM (%) Replicate 1, CDK7): 10.8%
- inhibition at 10 µM ([6]; read-out: Inhibition at 10µM (%) Replicate 2, CDK7): 44.9%
- inhibition at 10 µM [7, 20]: 12.6%
- inhibition at 10 µM [7, 21]: 13.8%
- inhibition at 10 µM [7, 22]: 11.5%
- inhibition at 10 µM [8, 20]: 39.8%
- inhibition at 10 µM [8, 21]: 12.7%
- inhibition at 10 µM [8, 22]: 67%
- inhibition at 10 µM ([9]; read-out: Inhibition at 10µM (%) Average, CDK11a/L2, average of replicates): 6.7%
- inhibition at 10 µM ([9]; read-out: Inhibition at 10µM (%) Replicate 1, CDK11a/L2): -0.9%
- inhibition at 10 µM ([9]; read-out: Inhibition at 10µM (%) Replicate 2, CDK11a/L2): 14.4%
- inhibition at 10 µM ([10]; read-out: Inhibition at 10µM (%) Average, CDK11b/L2, average of replicates): 8.5%
- inhibition at 10 µM ([10]; read-out: Inhibition at 10µM (%) Replicate 1, CDK11b/L2): 5.1%
- inhibition at 10 µM ([10]; read-out: Inhibition at 10µM (%) Replicate 2, CDK11b/L2): 11.9%
- inhibition at 10 µM [11, 20]: -2.5%
- inhibition at 10 µM [11, 21]: 3.8%
- inhibition at 10 µM [11, 22]: -8.8%
- IC50 [12, 23]: 600 ± 200 nM
- IC50 [12, 24]: 217 nM
- IC50 [12, 25]: 690 nM
- IC50 [12, 26]: 766 nM
- inhibition at 10 µM ([12]; read-out: Inhibition at 10µM (%) Average, CDK14/Y, average of replicates): 32.4%
- inhibition at 10 µM ([12]; read-out: Inhibition at 10µM (%) Replicate 1, CDK14/Y): 39%
- inhibition at 10 µM ([12]; read-out: Inhibition at 10µM (%) Replicate 2, CDK14/Y): 25.8%
- IC50 [13, 23]: 820 ± 50 nM
- IC50 [13, 24]: 842 nM
- IC50 [13, 25]: 720 nM
- IC50 [13, 26]: 901 nM
- inhibition at 10 µM ([13]; read-out: Inhibition at 10µM (%) Average, CDK15/Y, average of replicates): 55.3%
- inhibition at 10 µM ([13]; read-out: Inhibition at 10µM (%) Replicate 1, CDK15/Y): 50.5%
- inhibition at 10 µM ([13]; read-out: Inhibition at 10µM (%) Replicate 2, CDK15/Y): 60.1%
- IC50 [14, 23]: 200 ± 100 nM
- IC50 [14, 24]: 103 nM
- IC50 [14, 25]: 420 nM
- IC50 [14, 26]: 188 nM
- inhibition at 10 µM ([14]; read-out: Inhibition at 10µM (%) Replicate 1, CDK16/Y): 64.2%
- inhibition at 10 µM ([14]; read-out: Inhibition at 10µM (%) Replicate 2, CDK16/Y): 56.2%
- inhibition at 10 µM ([15]; read-out: Inhibition at 10µM (%) Average, CDK17/Y, average of replicates): 43.6%
- inhibition at 10 µM ([15]; read-out: Inhibition at 10µM (%) Replicate 1, CDK17/Y): 42.5%
- inhibition at 10 µM ([15]; read-out: Inhibition at 10µM (%) Replicate 2, CDK17/Y): 44.7%
- inhibition at 10 µM ([16]; read-out: Inhibition at 10µM (%) Average, CDK18/Y, average of replicates): 28.7%
- inhibition at 10 µM ([16]; read-out: Inhibition at 10µM (%) Replicate 1, CDK18/Y): 11.9%
- inhibition at 10 µM ([16]; read-out: Inhibition at 10µM (%) Replicate 2, CDK18/Y): 45.6%
- inhibition at 10 µM ([17]; read-out: Inhibition at 10µM (%) Replicate 1, CDK20/H): 24.8%
- inhibition at 10 µM ([17]; read-out: Inhibition at 10µM (%) Replicate 2, CDK20/H): 6.8%
- inhibition at 10 µM ([18]; read-out: Inhibition at 10µM (%) Average, CDK19/C, average of replicates): 16.1%
- inhibition at 10 µM ([18]; read-out: Inhibition at 10µM (%) Replicate 1, CDK19/C): 17.8%
- inhibition at 10 µM ([18]; read-out: Inhibition at 10µM (%) Replicate 2, CDK19/C): 14.4%
- inhibition at 10 µM ([19]; read-out: Inhibition at 10µM (%) Average, CDK10/L2, average of replicates): 2.1%
- inhibition at 10 µM ([19]; read-out: Inhibition at 10µM (%) Replicate 1, CDK10/L2): 1.6%
- inhibition at 10 µM ([19]; read-out: Inhibition at 10µM (%) Replicate 2, CDK10/L2): 2.6%
